Laboratory results from patent US20160158200A1, “Combinations of Hepatitis C Virus Inhibitors” (priority 2013, published 2016).

Test system: HCV genotype-1a variant with glutamine 30 changed to glutamate in the NS5A protein
Assay type: cell-based
Conditions: test compound titrated with BMS-790052 fixed at 200 nM; genotype 1a Q30E replicon
In short: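 Synergy was assessed by combining several fixed amounts of an NS5A-targeting compound with a titration of the second compound of interest.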

CC(C)(C)[C@H](NC(=O)C1CCCCC1CO)c1nc(-c2ccc(-c3ccc(-c4c[nH]c([C@@H](NC(=O)C5CCCCC5CO)C(C)(C)C)n4)cc3)cc2)c[nH]1 (single isomer, unassigned) [Compound L-141b]
Fold-Synergistic 1a (Q30E): >100 fold

CC(C)(C)CN[C@H](c1nc(-c2ccc(-c3ccc(-c4c[nH]c([C@@H](NCC(C)(C)C)C(C)(C)C)n4)cc3)cc2)c[nH]1)C(C)(C)C [Compound L-1]
Fold-Synergistic 1a (Q30E): >100 fold

CC(C)(C)C(NC(=O)C1(NC(=O)C2CC2(F)F)CCCCC1)c1nc(-c2ccc(-c3ccc(-c4c[nH]c(C(NC(=O)C5(NC(=O)C6CC6(F)F)CCCCC5)C(C)(C)C)n4)cc3)cc2)c[nH]1 (mixture of isomers) [Compound W-277]
Fold-Synergistic 1a (Q30E): >100 fold

CC(C)(C)[C@H](NC(=O)C1CCC(F)(F)CC1)c1nc(-c2ccc(-c3ccc4c(c3)CCc3nc([C@@H](NC(=O)C5CCC(F)(F)CC5)C(C)(C)C)[nH]c3-4)cc2)c[nH]1 [Compound B10]
Fold-Synergistic 1a (Q30E): >100 fold

COC(=O)N(C)CC1(C(=O)N[C@H](c2nc(-c3ccc(-c4ccc(-c5c[nH]c([C@@H](NC(=O)C6(CN(C)C(=O)OC)CC6)C(C)(C)C)n5)cc4)cc3)c[nH]2)C(C)(C)C)CC1 [Compound L-41]
Fold-Synergistic 1a (Q30E): >100 fold

CC(C)C(NC(=O)C(=O)N(C(C)C)C1CC1)c1nc(-c2ccc(-c3ccc(-c4c[nH]c(C(NC(=O)C(=O)N(C(C)C)C5CC5)C(C)C)n4)cc3)cc2)c[nH]1 (centres unmarked) [Compound W-55]
Fold-Synergistic 1a (Q30E): >100 fold

CC(C)(C)[C@H](NC(=O)C1C(C)(C)C1(C)C)c1nc(-c2ccc(-c3ccc(-c4c[nH]c([C@@H](NC(=O)C5C(C)(C)C5(C)C)C(C)(C)C)n4)cc3)cc2)c[nH]1 [Compound N-55]
Fold-Synergistic 1a (Q30E): >100 fold

CC(C)[C@H](NC(=O)C(C)(C)Oc1ccccc1F)c1ncc(-c2ccc(-c3ccc(-c4cnc([C@@H](NC(=O)C(C)(C)Oc5ccccc5F)C(C)C)[nH]4)cc3)cc2)[nH]1 [Compound Y-33]
Fold-Synergistic 1a (Q30E): >100 fold

CC1(C(O)C(C)(C)C(=O)N[C@H](c2nc(-c3ccc(-c4ccc(-c5c[nH]c([C@@H](NC(=O)C(C)(C)C(O)C6(C)CC6)C(C)(C)C)n5)cc4)cc3)c[nH]2)C(C)(C)C)CC1 (single isomer, unassigned) [Compound N-151B]
Fold-Synergistic 1a (Q30E): >100 fold

O=C(c1cnc(Cl)c(Cl)c1)N1CCC[C@H]1c1ncc(-c2ccc(-c3ccc(C4=CNC([C@@H]5CCCN5C(=O)c5cnc(Cl)c(Cl)c5)N4)cc3)cc2)[nH]1 (some centres unmarked) [Compound S-133]
Fold-Synergistic 1a (Q30E): <10 fold

CC(O)(CF)C(=O)N[C@H](c1nc(-c2ccc(-c3ccc(-c4c[nH]c([C@@H](NC(=O)C(C)(O)CF)C(C)(C)C)n4)cc3)cc2)c[nH]1)C(C)(C)C (single isomer, unassigned) [Compound N-139A]
Fold-Synergistic 1a (Q30E): >100 fold

CC(C)[C@H](NC(=O)C(C)(C)NC(=O)OC(C)(C)C)c1ncc(-c2ccc(-c3ccc(-c4cnc([C@@H](NC(=O)C(C)(C)NC(=O)OC(C)(C)C)C(C)C)[nH]4)cc3)cc2)[nH]1 [Compound Y-26]
Fold-Synergistic 1a (Q30E): >100 fold

CC(C)(C)[C@H](NC(=O)C12CCC(CC1)N2)c1nc(-c2ccc(-c3ccc(-c4c[nH]c([C@@H](NC(=O)C56CCC(CC5)N6)C(C)(C)C)n4)cc3)cc2)c[nH]1.Cl.Cl.Cl.Cl [Compound W-92]
Fold-Synergistic 1a (Q30E): >10 fold

COC1(C(=O)NC(c2nc(-c3ccc(-c4ccc(-c5c[nH]c(C(NC(=O)C6(OC)CCOC6)C(C)(C)C)n5)cc4)cc3)c[nH]2)C(C)(C)C)CCOC1 (mixture of isomers) [Compound N-158]
Fold-Synergistic 1a (Q30E): >100 fold

CC(C)[C@H](NC(=O)C1CC1)c1ncc(-c2ccc(-c3ccc(-c4cnc([C@@H](NC(=O)C5CC5)C(C)C)[nH]4)cc3)cc2)[nH]1 [Compound S-20]
Fold-Synergistic 1a (Q30E): >100 fold

CCCC[C@@H](CC(=O)OC(C)(C)C)C(=O)N[C@H](c1nc(-c2ccc(-c3ccc(-c4c[nH]c([C@@H](NC(=O)[C@@H](CCCC)CC(=O)OC(C)(C)C)C(C)(C)C)n4)cc3)cc2)c[nH]1)C(C)(C)C [Compound S-260]
Fold-Synergistic 1a (Q30E): >100 fold

CC1(C)CCN(C(=O)c2cccc3ccccc23)C1c1nc(-c2ccc(-c3ccc(-c4c[nH]c(C5N(C(=O)c6cccc7ccccc67)CCC5(C)C)n4)cc3)cc2)c[nH]1 (centres unmarked) [Compound W-225]
Fold-Synergistic 1a (Q30E): <10 fold

CC(C)[C@H](NC(=O)C1(C)CCCCC1)c1ncc(-c2ccc(-c3ccc(-c4cnc([C@@H](NC(=O)C5(C)CCCCC5)C(C)C)[nH]4)c(OC(F)F)c3)cc2)[nH]1 [Compound Y-12]
Fold-Synergistic 1a (Q30E): >100 fold

CC(C)[C@H](NC(=O)c1cc(Cl)ccc1F)c1nc(-c2ccc(-c3ccc(-c4c[nH]c([C@@H](NC(=O)c5cc(Cl)ccc5F)C(C)C)n4)c(F)c3)cc2)c[nH]1.O=C(O)C(F)(F)F [Compound N-88]
Fold-Synergistic 1a (Q30E): >100 fold

COc1ccc(C2(C(=O)N[C@H](c3ncc(-c4ccc(-c5ccc(-c6cnc([C@@H](NC(=O)C7(c8ccc(OC)cc8)CCCC7)C(C)C)[nH]6)cc5)cc4)[nH]3)C(C)C)CCCC2)cc1 [Compound S-24]
Fold-Synergistic 1a (Q30E): >100 fold

O=C(C(=O)N1CCCC1c1nc(-c2ccc(-c3ccc(-c4c[nH]c([C@@H]5CCCN5C(=O)C(=O)N5CCC(F)(F)CC5)n4)cc3)cc2)c[nH]1)N1CCC(F)(F)CC1 (some centres unmarked) [Compound W-189]
Fold-Synergistic 1a (Q30E): >100 fold

COC(CO)(CC(C)C)C(=O)N[C@H](c1nc(-c2ccc(-c3ccc(-c4c[nH]c([C@@H](NC(=O)C(CO)(CC(C)C)OC)C(C)(C)C)n4)cc3)cc2)c[nH]1)C(C)(C)C (single isomer, unassigned) [Compound N-160A]
Fold-Synergistic 1a (Q30E): >100 fold

CC(C)(C)[C@H](NC(=O)C(C)(C)n1cnc(C(F)(F)F)c1)c1nc(-c2ccc(-c3ccc(-c4c[nH]c([C@@H](NC(=O)C(C)(C)n5cnc(C(F)(F)F)c5)C(C)(C)C)n4)cc3)cc2)c[nH]1 [Compound W-150]
Fold-Synergistic 1a (Q30E): >100 fold

CC(C)(C)[C@H](NC(=O)C1(C(F)(F)F)CCCC1)c1nc(-c2ccc(-c3ccc(-c4c[nH]c([C@@H](NC(=O)C5(C(F)(F)F)CCCC5)C(C)(C)C)n4)cc3)cc2)c[nH]1 [Compound N-52]
Fold-Synergistic 1a (Q30E): >100 fold

CC(C)(C)[C@H](NC(=O)c1ccccc1F)c1nc(-c2ccc(-c3ccc(-c4c[nH]c([C@@H](NC(=O)c5ccccc5F)C(C)(C)C)n4)cc3)cc2)c[nH]1 [Compound P-23]
Fold-Synergistic 1a (Q30E): >100 fold

CC(C)[C@H](NC(=O)c1ccc(C(F)(F)F)cc1)c1ncc(-c2ccc(-c3ccc(-c4cnc([C@@H](NC(=O)c5ccc(C(F)(F)F)cc5)C(C)C)[nH]4)cc3)cc2)[nH]1 [Compound S-84]
Fold-Synergistic 1a (Q30E): >100 fold

CC(C)(C)C(NC(=O)C1CC(=O)c2ccccc2C1)c1nc(-c2ccc(-c3ccc(-c4c[nH]c(C(NC(=O)C5CC(=O)c6ccccc6C5)C(C)(C)C)n4)cc3)cc2)c[nH]1 (mixture of isomers) [Compound S-256]
Fold-Synergistic 1a (Q30E): >100 fold

CC(C)(C)[C@H](NC(=O)C1C2CCOC21)c1nc(-c2ccc(-c3ccc(-c4cnc([C@@H](NC(=O)C5C6CCOC65)C(C)(C)C)[nH]4)cc3)cc2)c[nH]1 (single isomer, unassigned) [Compound B-165]
Fold-Synergistic 1a (Q30E): >100 fold

C=CC(C)(C)C(=O)N[C@H](c1nc(-c2ccc(-c3ccc(-c4cnc([C@@H](NC(=O)C(C)(C)C=C)C(C)(C)C)[nH]4)cc3)cc2)c[nH]1)C(C)(C)C.O=C(O)C(F)(F)F [Compound B-166]
Fold-Synergistic 1a (Q30E): >100 fold
